Measurements taken from patent publication US8741934B2, “Inhibitors of ion channels” (Pfizer Limited, priority 2007, dated 2014).

Biological target: T1, hSCN3A sodium channels (Homo sapiens, UniProt Q9NY46)
T1 construct: expressed in transfected cells
Assay: hSCN3A electrophysiology, Ionworks Quattro automated platform (Table C)
Format: cell-based
Conditions: for inhibition at 3 µM: 3 μM compound, read-out: SCN3A % INHIB HTS IWQ 3 μM; for inhibition at 10 µM: 10 μM compound, read-out: SCN3A % INHIB HTS IWQ 10 μM; for SCN3A INHIB INACT DRC EP IWQ EMAX: Emax of dose-response curve, inactivated state
How it was run: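 HEK cells stably expressing hSCN3A were recorded in perforated-patch mode with 100 μg/ml amphotericin on Ionworks Quattro. The protocol used an inactivating step, a brief hyperpolarized partial recovery, then a depolarized test step. Inhibition was taken from current amplitude before versus after compound addition.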

T1 sequence (Q9NY46 whole entry): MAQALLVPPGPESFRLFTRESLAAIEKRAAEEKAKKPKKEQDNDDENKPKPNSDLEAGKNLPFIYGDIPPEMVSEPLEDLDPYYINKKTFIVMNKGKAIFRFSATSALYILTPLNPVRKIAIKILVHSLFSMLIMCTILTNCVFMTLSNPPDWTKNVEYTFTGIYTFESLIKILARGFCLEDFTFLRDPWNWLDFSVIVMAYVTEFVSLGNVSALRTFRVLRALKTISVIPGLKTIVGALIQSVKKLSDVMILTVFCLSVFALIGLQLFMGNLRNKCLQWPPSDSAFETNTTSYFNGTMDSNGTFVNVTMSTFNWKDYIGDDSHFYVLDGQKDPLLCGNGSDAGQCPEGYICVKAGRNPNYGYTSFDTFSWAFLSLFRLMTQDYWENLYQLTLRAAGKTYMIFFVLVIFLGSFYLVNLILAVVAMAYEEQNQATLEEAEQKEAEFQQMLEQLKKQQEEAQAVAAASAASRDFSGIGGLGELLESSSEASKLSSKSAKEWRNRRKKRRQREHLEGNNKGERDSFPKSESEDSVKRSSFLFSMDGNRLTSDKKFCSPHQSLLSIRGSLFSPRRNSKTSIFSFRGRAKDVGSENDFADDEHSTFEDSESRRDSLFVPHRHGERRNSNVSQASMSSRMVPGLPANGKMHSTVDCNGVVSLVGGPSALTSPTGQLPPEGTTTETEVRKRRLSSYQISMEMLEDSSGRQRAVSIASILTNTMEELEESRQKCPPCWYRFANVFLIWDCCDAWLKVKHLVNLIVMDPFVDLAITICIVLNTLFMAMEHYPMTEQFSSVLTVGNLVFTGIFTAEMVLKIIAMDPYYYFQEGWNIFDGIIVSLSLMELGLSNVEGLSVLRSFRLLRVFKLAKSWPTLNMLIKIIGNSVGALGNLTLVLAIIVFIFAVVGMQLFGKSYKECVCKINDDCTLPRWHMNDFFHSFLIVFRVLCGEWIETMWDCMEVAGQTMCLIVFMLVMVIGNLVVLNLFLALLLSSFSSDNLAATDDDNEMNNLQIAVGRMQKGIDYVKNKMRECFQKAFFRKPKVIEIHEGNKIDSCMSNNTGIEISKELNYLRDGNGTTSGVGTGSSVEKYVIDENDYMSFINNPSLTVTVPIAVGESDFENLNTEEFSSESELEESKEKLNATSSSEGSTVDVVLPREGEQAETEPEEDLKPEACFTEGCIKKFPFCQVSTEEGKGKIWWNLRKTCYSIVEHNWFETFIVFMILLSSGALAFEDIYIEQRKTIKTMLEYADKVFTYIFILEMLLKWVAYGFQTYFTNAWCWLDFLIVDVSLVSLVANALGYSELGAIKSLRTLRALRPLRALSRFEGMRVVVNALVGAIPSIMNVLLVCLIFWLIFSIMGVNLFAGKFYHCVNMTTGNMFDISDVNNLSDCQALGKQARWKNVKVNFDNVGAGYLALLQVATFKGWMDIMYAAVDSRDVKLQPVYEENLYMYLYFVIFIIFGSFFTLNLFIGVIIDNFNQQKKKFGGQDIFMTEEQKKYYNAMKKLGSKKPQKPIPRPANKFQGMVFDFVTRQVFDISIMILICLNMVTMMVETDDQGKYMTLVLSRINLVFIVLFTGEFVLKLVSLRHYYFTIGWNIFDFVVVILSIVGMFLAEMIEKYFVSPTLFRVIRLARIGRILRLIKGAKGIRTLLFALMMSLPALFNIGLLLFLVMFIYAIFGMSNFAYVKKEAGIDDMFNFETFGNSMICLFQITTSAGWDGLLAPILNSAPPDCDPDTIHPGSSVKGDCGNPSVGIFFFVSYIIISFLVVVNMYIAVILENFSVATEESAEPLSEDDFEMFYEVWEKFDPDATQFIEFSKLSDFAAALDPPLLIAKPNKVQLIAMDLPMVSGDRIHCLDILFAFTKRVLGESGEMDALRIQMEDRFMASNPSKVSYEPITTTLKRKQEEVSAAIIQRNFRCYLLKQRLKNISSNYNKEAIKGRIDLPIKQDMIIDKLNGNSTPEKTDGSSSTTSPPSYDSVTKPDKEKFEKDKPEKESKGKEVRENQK

## Cc1cnc(NC(=O)c2ccc(S(=O)(=O)Nc3nccs3)cc2)c(C)c1 [Example 184, N-(3,5-dimethylpyridin-2-yl)-4-[(1,3-thiazol-2-ylamino)sulfonyl]benzamide]
  inhibition at 3 µM: 29%
  inhibition at 10 µM: 20.8%

## COc1ccc(CC2(NC(=O)c3ccc(S(=O)(=O)Nc4nccs4)cc3)CC2)cc1 [Example 162, N-[1-(4-methoxybenzyl)cyclopropyl]-4-[(1,3-thiazol-2-ylamino)sulfonyl]benzamide]
  inhibition at 3 µM: 28%
  inhibition at 10 µM: 13.7%

## CC[C@@H](NC(=O)c1ccc(S(=O)(=O)Nc2nccs2)cc1)c1ccccc1 [Example 150, N-[(1R)-1-phenylpropyl]-4-[(1,3-thiazol-2-ylamino)sulfonyl]benzamide]
  inhibition at 3 µM: -7.12%
  inhibition at 10 µM: 22.6%

## O=C(N[C@H](CO)Cc1ccccc1)c1ccc(S(=O)(=O)Nc2nccs2)cc1 [Example 182, N-[(1S)-1-benzyl-2-hydroxyethyl]-4-[(1,3-thiazol-2-ylamino)sulfonyl]benzamide]
  inhibition at 3 µM: 4.7%
  inhibition at 10 µM: 4.83%

## Cc1cccc(CNC(=O)c2ccc(S(=O)(=O)Nc3nccs3)cc2)c1C [Example 82, N-(2,3-dimethylbenzyl)-4-[(1,3-thiazol-2-ylamino)sulfonyl]benzamide]
  inhibition at 3 µM: 29.7%
  inhibition at 10 µM: 63%

## O=C(c1ccc(S(=O)(=O)Nc2nccs2)cc1)N1CCCC1c1ccccn1 (centres unmarked) [Example 283, 4-[(2-Pyridin-2-ylpyrrolidin-1-yl)carbonyl]-N-1,3-thiazol-2-ylbenzenesulfonamide]
  inhibition at 3 µM: -1.98%
  inhibition at 10 µM: 0.98%

## O=C(NC1(Cc2cccc(Cl)c2)CC1)c1ccc(S(=O)(=O)Nc2nccs2)cc1 [Example 137, N-[1-(3-chlorobenzyl)cyclopropyl]-4-[(1,3-thiazol-2-ylamino)sulfonyl]benzamide]
  inhibition at 3 µM: 21.8%
  inhibition at 10 µM: 36.2%

## O=C(c1ccc(S(=O)(=O)Nc2nccs2)cc1)N1CCOC(COc2cccc(Cl)c2)C1 (centres unmarked) [Example 234, 4-({2-[(3-Chlorophenoxy)methyl]morpholin-4-yl}carbonyl)-N-1,3-thiazol-2-yl-benzenesulfonamide]
  inhibition at 3 µM: 32%
  inhibition at 10 µM: 45.9%
  SCN3A INHIB INACT DRC EP IWQ EMAX: 43.1

## Cc1ccccc1O[C@@H]1CCN(C(=O)c2ccc(S(=O)(=O)Nc3nccs3)cc2)C1 [Example 204, 4-{[(3R)-3-(2-methylphenoxy)pyrrolidin-1-yl]carbonyl}-N-1,3-thiazol-2-yl-benzenesulfonamide]
  inhibition at 3 µM: 18.1%
  inhibition at 10 µM: 16.2%

## CC(NC(=O)c1ccc(S(=O)(=O)Nc2nccs2)cc1)c1ccc(F)cc1 (centres unmarked) [Example 103, N-[1-(4-fluorophenyl)ethyl]-4-[(1,3-thiazol-2-ylamino)sulfonyl]benzamide]
  inhibition at 3 µM: 21.2%
  inhibition at 10 µM: 46.8%

## O=C(NC1(c2cccc(Cl)c2)CC1)c1ccc(S(=O)(=O)Nc2nccs2)cc1 [Example 135, N-[1-(3-chlorophenyl)cyclopropyl]-4-[(1,3-thiazol-2-ylamino)sulfonyl]benzamide]
  inhibition at 3 µM: 27.4%
  inhibition at 10 µM: 30.1%

## CC(C)(NC(=O)c1ccc(S(=O)(=O)Nc2nccs2)cc1)c1cc(F)cc(F)c1 [Example 141, N-[1-(3,5-difluorophenyl)-1-methylethyl]-4-[(1,3-thiazol-2-ylamino)sulfonyl]benzamide]
  inhibition at 3 µM: 6.82%
  inhibition at 10 µM: 25%

## O=C(c1ccc(S(=O)(=O)Nc2nccs2)cc1)N1CCCC1c1ccccc1Cl (centres unmarked) [Example 215, 4-{[2-(2-Chlorophenyl)pyrrolidin-1-yl]carbonyl}-N-1,3-thiazol-2-yl-benzenesulfonamide]
  inhibition at 3 µM: 30.5%
  inhibition at 10 µM: 51.9%
  SCN3A INHIB INACT DRC EP IWQ EMAX: 64.7
read-out: SCN3A IWQ IC-50
  IC50: 8.41 µM

## O=C(c1ccc(S(=O)(=O)Nc2nccs2)cc1)N1CCC(Cc2ccccc2)C1 (centres unmarked) [Example 282, 4-[(3-Benzylpyrrolidin-1-yl)carbonyl]-N-1,3-thiazol-2-yl-benzenesulfonamide]
  inhibition at 3 µM: 29.1%
  inhibition at 10 µM: 11.4%

## O=C(c1ccc(S(=O)(=O)Nc2nccs2)cc1)N1CCCC[C@@H]1c1ccccn1 [Example 261, 4-{[(2R)-2-pyridin-2-yl-piperidin-1-yl]carbonyl}-N-1,3-thiazol-2-yl-benzenesulfonamide]
  inhibition at 3 µM: 6.02%
  inhibition at 10 µM: 10.4%

## Cc1cccc(C2(C)CN(C(=O)c3ccc(S(=O)(=O)Nc4nccs4)cc3)CCO2)c1 (centres unmarked) [Example 189, 4-{[2-Methyl-2-(3-methylphenyl)morpholin-4-yl]carbonyl}-N-1,3-thiazol-2-yl-benzenesulfonamide]
  inhibition at 3 µM: 25.3%
  inhibition at 10 µM: 21%

## O=C(c1ccc(S(=O)(=O)Nc2nccs2)cc1)N1CCCCC1CCn1cccn1 (centres unmarked) [Example 190, 4-({2-[2-(1H-pyrazol-1-yl)ethyl]piperidin-1-yl}carbonyl)-N-1,3-thiazol-2-yl-benzenesulfonamide]
  inhibition at 3 µM: 2.77%
  inhibition at 10 µM: -8.21%

## CC(NC(=O)c1ccc(S(=O)(=O)Nc2nccs2)cc1)c1ccccc1Cl (centres unmarked) [Example 143, N-[1-(2-chlorophenyl)ethyl]-4-[(1,3-thiazol-2-ylamino)sulfonyl]benzamide]
  inhibition at 3 µM: 16%
  inhibition at 10 µM: 32%

## O=C(NC1(Cc2ccccc2Cl)CC1)c1ccc(S(=O)(=O)Nc2nccs2)cc1 [Example 129, N-[1-(2-chlorobenzyl)cyclopropyl]-4-[(1,3-thiazol-2-ylamino)sulfonyl]benzamide]
  inhibition at 3 µM: 13.6%
  inhibition at 10 µM: 24.2%

## CC(Cc1ccc(C(F)(F)F)cc1)NC(=O)c1ccc(S(=O)(=O)Nc2nccs2)cc1 (centres unmarked) [Example 130, N-{1-methyl-2-[4-(trifluoromethyl)phenyl]ethyl}-4-[(1,3-thiazol-2-ylamino)sulfonyl]benzamide]
  inhibition at 3 µM: 23.1%
  inhibition at 10 µM: 16.5%

## COc1ccc(CCNC(=O)c2ccc(S(=O)(=O)Nc3nccs3)cc2)cc1 [Example 169, N-[2-(4-methoxyphenyl)ethyl]-4-[(1,3-thiazol-2-ylamino)sulfonyl]benzamide]
  inhibition at 3 µM: 35.3%
  inhibition at 10 µM: 27.3%

## Cc1ncccc1OCC1CN(C(=O)c2ccc(S(=O)(=O)Nc3nccs3)cc2)CCO1 (centres unmarked) [Example 243, 4-[(2-{[(2-Methylpyridin-3-yl)oxy]methyl}morpholin-4-yl)carbonyl]-N-1,3-thiazol-2-yl-benzenesulfonamide]
  inhibition at 3 µM: 15.3%
  inhibition at 10 µM: 14.7%

## Cc1ccc(OCCNC(=O)c2ccc(S(=O)(=O)Nc3nccs3)cc2)cc1 [Example 154, N-[2-(4-methylphenoxy)ethyl]-4-[(1,3-thiazol-2-ylamino)sulfonyl]benzamide]
  inhibition at 3 µM: 28%
  inhibition at 10 µM: 30.8%

## C[C@H]([C@@H](O)c1ccccc1)N(C)C(=O)c1ccc(S(=O)(=O)Nc2nccs2)cc1 [Example 241, N-[(1R,2S)-2-hydroxy-1-methyl-2-phenylethyl]-N-methyl-4-[(1,3-thiazol-2-ylamino)sulfonyl]benzamide]
  inhibition at 3 µM: 21.7%
  inhibition at 10 µM: 11.6%

## O=C(NCCc1ccccc1F)c1ccc(S(=O)(=O)Nc2nccs2)cc1 [Example 77, N-[2-(2-fluorophenyl)ethyl]-4-[(1,3-thiazol-2-ylamino)sulfonyl]benzamide]
  inhibition at 3 µM: 16.6%
  inhibition at 10 µM: 27.9%

## O=C(c1ccc(S(=O)(=O)Nc2nccs2)cc1)N1CCCC(COc2ccc(F)cc2)C1 (centres unmarked) [Example 264, 4-({3-[(4-Fluorophenoxy)methyl]piperidin-1-yl}carbonyl)-N-1,3-thiazol-2-yl-benzenesulfonamide]
  inhibition at 3 µM: 16.9%
  inhibition at 10 µM: 14.8%

## O=C(NCC1(c2ccccc2)CC1)c1ccc(S(=O)(=O)Nc2nccs2)cc1 [Example 153, N-[(1-phenylcyclopropyl)methyl]-4-[(1,3-thiazol-2-ylamino)sulfonyl]benzamide]
  inhibition at 3 µM: 15.9%
  inhibition at 10 µM: 32.9%

## COc1ccc(C2(NC(=O)c3ccc(S(=O)(=O)Nc4nccs4)cc3)CC2)cc1 [Example 160, N-[1-(4-methoxyphenyl)cyclopropyl]-4-[(1,3-thiazol-2-ylamino)sulfonyl]benzamide]
  inhibition at 3 µM: 15.6%
  inhibition at 10 µM: 14.8%

## O=C(NC(CO)c1ccccc1)c1ccc(S(=O)(=O)Nc2nccs2)cc1 (centres unmarked) [Example 57, N-(2-hydroxy-1-phenylethyl)-4-[(1,3-thiazol-2-ylamino)sulfonyl]benzamide]
  inhibition at 3 µM: 25.2%
  inhibition at 10 µM: 47.8%

## O=C(c1ccc(S(=O)(=O)Nc2nccs2)cc1)N1CCOCC(Cc2ccccc2)C1 (centres unmarked) [Example 259, 4-[(6-Benzyl-1,4-oxazepan-4-yl)carbonyl]-N-1,3-thiazol-2-yl-benzenesulfonamide]
  inhibition at 3 µM: 5.51%
  inhibition at 10 µM: 19.6%

## CN(CC(O)c1ccccc1)C(=O)c1ccc(S(=O)(=O)Nc2nccs2)cc1 (centres unmarked) [Example 250, N-(2-hydroxy-2-phenylethyl)-N-methyl-4-[(1,3-thiazol-2-yl-amino)sulfonyl]benzamide]
  inhibition at 3 µM: -4.32%
  inhibition at 10 µM: 0.12%

## Cc1ccc(F)cc1CNC(=O)c1ccc(S(=O)(=O)Nc2nccs2)cc1 [Example 58, N-(5-fluoro-2-methylbenzyl)-4-[(1,3-thiazol-2-ylamino)sulfonyl]benzamide]
  inhibition at 3 µM: 37.4%
  inhibition at 10 µM: 49.7%

## Cc1cccc(CN2CCN(C(=O)c3ccc(S(=O)(=O)Nc4nccs4)cc3)CC2=O)c1 [Example 276, 4-{[4-(3-Methylbenzyl)-3-oxopiperazin-1-yl]carbonyl}-N-1,3-thiazol-2-yl-benzenesulfonamide]
  inhibition at 3 µM: 18.1%
  inhibition at 10 µM: 20.6%

## CCC(NC(=O)c1ccc(S(=O)(=O)Nc2nccs2)cc1)c1ccc(F)cc1 (centres unmarked) [Example 142, N-[1-(4-fluorophenyl)propyl]-4-[(1,3-thiazol-2-ylamino)sulfonyl]benzamide]
  inhibition at 3 µM: 30.4%
  inhibition at 10 µM: 31.5%
